From article PMC11720699, “Developing Allosteric Chaperones for GBA1-Associated Disorders—An Integrated Computational and Experimental Approach” (International Journal of Molecular Sciences, 2024) come the findings set out here.

Data set [1] can be described thus: NeuroPK: plasma and brain levels after i.v. administration. The data set is classed as in vivo, male C57BL/6 mice. As to conditions: mouse, i.v. 10 mg/kg. The protocol: Finally, we investigated whether compound 3 can cross the BBB and enter the central nervous system following intravenous (i.v.) administration. This is a preliminary step in developing the compound as a disease-modifying therapy for neuropathic GD and other neurological disorders linked to GBA mutations, such as PD and other synucleinopathies. Pharmacokinetics and brain penetrability were assessed by measuring the levels of compound 3 in brain tissue and plasma after intravenous administration (10 mg/kg) in wild-type mice.
The brain penetration of compound 3 following intravenous injection was evaluated as follows. Nine male C57BL/6 mice received an intravenous dose of 10 mg/kg of the compound in a solution formulation consisting of 5% v/v NMP (N-methyl-2-pyrrolidone), 10% v/v Solutol® HS-15, 30% v/v PEG-400, and […]. Blood samples (approximately 60 µL) were collected under light isoflurane anesthesia from three mice at each of the following time points: 0.25, 2, and 8 h. Plasma was obtained by centrifuging the blood and stored at −70 ± 10 °C until analysis. Brain samples were also collected from each mouse at the respective time points. Tissue samples were homogenized using ice-cold phosphate-buffered saline (pH 7.4), and the homogenates were stored below −70 °C until analysis. The total homogenate volume was three times the brain weight.
The concentration-time data from plasma and brain samples were used for pharmacokinetic analysis. Both plasma and brain samples were quantified using a fit-for-purpose LC-MS/MS method, with a lower limit of quantification (LLOQ) of 1.00 ng/mL for plasma and 2.00 ng/mL for the brain. The LC conditions were as follows: Thermo Scientific™ Accucore™ C18 column (2.7 µm, 50 mm × 2.1 mm), run time of 1.6 min, injection volume of 1 µL, and flow rate of 0.8 mL/min. The mobile phase consisted of 0.1% formic acid in acetonitrile (A) and 10 mM ammonium formate (B), with the following gradient: 0.00 min/95% B, 0.30 min/95% B, 0.50 min/5% B, 1.20 min/5% B, 1.40 min/95% B, and 1.60 min/95% B.

Data set [2] deals with GlcSph. The experiment in a line: GlcSph quantification by LC/MS-MS in differentiated BE(2)-M17 cells. Format: cell-based, human. The note with it: GBA1 mutant BE(2)-M17 cell lines, 10 days, 25 µM. The text has this: Our neuronal model uses stable BE(2)-M17 dopaminergic-like neuronal cell lines that constitutively express two prevalent GBA1 mutations, p.N370S and p.L444P [37]. These neuronal cell lines undergo post-mitotic differentiation and display a dopaminergic phenotype, neurite extension, and sphingolipid accumulation. Therefore, they serve as an excellent model for evaluating the biological efficacy of therapeutic interventions, such as our PCs, aimed at restoring GCase activity in vitro. Subsequently, we induced differentiation of BE(2)-M17 cell lines into post-mitotic neuronal cells, a crucial step for investigating the effects of lysosomal system impairment and its consequences in terms of intracellular macromolecule accumulation. Following differentiation, cells were treated for an extended period (10 days) with the selected compounds to analyze their impact on GCase stability, GCase activity, sphingolipid accumulation, and cell viability. […]
For BE(2)-M17 samples, lipid extraction to quantify sphingolipids was conducted as outlined in Navarro-Romero et al.. […] The supernatant was evaporated to dryness under a stream of nitrogen and reconstituted with 500 µL of methanol:chloroform (1:2) before being transferred into chromatography vials for quantification via liquid chromatography tandem-mass spectrometry (LC-MS/MS). […]

The structures appear in SMILES notation.

`CN(C(=O)c1cc(N)cc(Nc2cccc3c2OCO3)n1)c1ccccc1` [Compound 3] showed a Kp at […] in data set [1] (male, C57BL/6, brain/plasma, iv, 0.25 h) of 4.37. Also, in data set [1] (male, C57BL/6, brain/plasma, iv, 2 h), the Kp at 2 h was found to be 3.29. For the same molecule, the concentration ratio (Kp) at 8 h in data set [1] (male, C57BL/6, brain/plasma, iv, 8 h) came to 1.16. Besides, in data set [1] (male, C57BL/6, plasma, iv, 0.25 h), the concentration at […] amounted to 1970 ng/mL. Also, the concentration at 2 h in data set [1] (male, C57BL/6, plasma, iv, 2 h) turned out to be 65.1 ng/mL. The concentration at 8 h in data set [1] (male, C57BL/6, plasma, iv, 8 h) is 11.4 ng/mL. For the same molecule, the “Brain Concentration” value turned out to be 221.14 n/g in data set [1] (2 h) and 13.64 n/g in data set [1] (8 h). In data set [2], the “effect on GlcSph (sphingolipid) levels” value was “effectively reduced accumulated sphingolipid levels”.

A word on the Kp: it is tissue or fluid exposure divided by exposure in the circulation.
